Eleven compounds from patent US9980943B2, “Methods of treating muscular dystrophy” (BOARD OF REGENTS OF THE NEVADA SYSTEM OF HIGHER EDUCATION, …, priority 2013, dated 2018) can be followed below.

Holding throughout (assay type): cell-based, mouse
The subject of assay [1] is α7 integrin (LacZ reporter in α7βgal+/− myoblasts). The assay can be described thus: Myoblast α7+/LacZ integrin FDG assay (Burkin assay in myoblasts, 96-well). The following applies: α7+/LacZ myoblasts, 96-well.
In assay [2] the test system is β-galactosidase in CMV-LacZ C2C12 myotubes. The assay is described as follows: CMV-LacZ secondary screen in C2C12 myotubes (β-Gal stabilizing assay). The following applies: for CMV-LACZ in Myotubes, signal relative to DMSO: C2C12 CMV-LacZ myotubes, fold relative to DMSO; for CMV-LACZ in Myotubes (β-galactosidase activity relative to DMSO): CMV-LacZ C2C12 myotubes, 96-well format. An excerpt: In order to determine compounds that acted to stabilize β-gal in myogenic cells, a CMV-LacZ C2C12 cell line was used in a secondary screen. The EGFP gene from the pEGFP (Clontech) vector was replaced by LACZ PCR product with digests of the vector/PCR product performed using EcoRI (NEB) and NotI (NEB) and ligated using T4 DNA Ligase (NEB) following standard procedures to produce the CMV-LACZ vector. The LACZ gene was generated by PCR from the pBK-RSV (Stratagene) vector using primers LACZ EcoRI F- and LACZ NotI R-. The CMV-LACZ vector was then digested with AfIII (NEB) to linearize the construct, which was then transfected in C2C12 myoblasts using Lipofectamine 2000 (Invitrogen) following the manufacturer's instructions. […] Clonal lines were selected and screened for βgal levels using the myoblast FDG assay.
The assays were used the original 96-well format and new dose-response curves for myoblasts (N=3-6 replicates for each data point), myotubes (N=3-6 replicates for data point), and CMV-LacZ secondary assay (N=2 replicates for each data point) using concentrations of 0.5 μM, 1 μM, 5 μM, 10 μM, 20 μM, and 40 μM (Tables 9-16).

In assay [3] the test system is α7 integrin (LacZ reporter in α7+/LacZ myotubes). The assay can be described thus: Myotube α7 integrin FDG assay (Burkin assay in myotubes, 96-well). Conditions: for dose-response curve in myotubes: hits of Prestwick/Microsource screens.

On to `O=Cc1cn(Cc2ccc(F)cc2Cl)c2ccccc12` [MLS000676974-01], for which the “Burkin Assay in Myoblasts, value relative to DMSO” value in assay [1] (0.5 uM) is 1.105; in assay [1] (1 uM), 1.137; in assay [1] (5 uM), 0.99; in assay [1] (10 uM) it was 1.099; in assay [1] (20 uM), 0.6673; in assay [1] (40 uM), 0.5184. Further, the “CMV-LACZ in Myotubes, signal relative to DMSO” value in assay [2] (5 uM) is listed as 1.077; in assay [2] (10 uM), 0.4574; in assay [2] (20 uM), 1.083; in assay [2] (40 uM), 0.46. The “Burkin Assay in Myotubes (signal relative to DMSO)” value in assay [3] (0.5 uM) turned out to be 0.9171; in assay [3] (1 uM), 0.9021; in assay [3] (5 uM), 0.7009; in assay [3] (10 uM), 0.5994; in assay [3] (20 uM) it was 0.9758; in assay [3] (40 uM) it was 0.5447.

Turning to `CC(C)(CC(=O)O)CC(=O)N1CCCN(c2nccc(C(F)(F)F)n2)CC1` [MLS001181671-01], the “Burkin Assay in Myoblasts, value relative to DMSO” value was found to be 1.052 in assay [1] (0.5 uM); 0.965 in assay [1] (1 uM); 0.8759 in assay [1] (5 uM); 0.8638 in assay [1] (10 uM); 0.8113 in assay [1] (20 uM); 0.891 in assay [1] (40 uM). Moreover, the “CMV-LACZ in Myotubes, signal relative to DMSO” value was 0.8803 in assay [2] (5 uM), 0.9201 in assay [2] (10 uM), 1.03 in assay [2] (20 uM) and 0.9377 in assay [2] (40 uM). Besides, the “Burkin Assay in Myotubes (signal relative to DMSO)” value was found to be 1.071 in assay [3] (0.5 uM); 0.9095 in assay [3] (1 uM); 1.337 in assay [3] (5 uM); 1.22 in assay [3] (10 uM); 0.9854 in assay [3] (20 uM); 0.9878 in assay [3] (40 uM).

For the compound `Oc1c(Br)cc(Br)cc1CNc1cccc2cccnc12` [MLS001183429-01], the “Burkin Assay in Myoblasts, signal relative to DMSO” value came out at 0.7592 in assay [1] (0.5 uM); 0.6652 in assay [1] (1 uM); 0.7821 in assay [1] (5 uM); 0.7373 in assay [1] (10 uM); 0.5666 in assay [1] (20 uM); 0.3329 in assay [1] (40 uM). Besides, the “CMV-LACZ in Myotubes, signal relative to DMSO” value was determined as 0.8436 in assay [2] (5 uM), 0.944 in assay [2] (10 uM), 0.9105 in assay [2] (20 uM) and 0.5809 in assay [2] (40 uM). Also, the “Burkin Assay in Myotubes, α7 integrin LacZ reporter signal relative to DMSO” value worked out at 0.8042 in assay [3] (0.5 uM); 0.823 in assay [3] (1 uM); 0.8557 in assay [3] (5 uM); 0.733 in assay [3] (10 uM); 0.4076 in assay [3] (20 uM); 0.2629 in assay [3] (40 uM).

Consider `Cc1cc(C)cc(-n2nnc(C(=O)NCc3ccccc3Cl)c2N)c1` [MLS000094770-01], for which the “Burkin Assay in Myoblasts, value relative to DMSO” value in assay [1] (0.5 uM) is 1.021; in assay [1] (1 uM), 0.9676; in assay [1] (5 uM) it was 0.9491; in assay [1] (10 uM) it was 0.9866; in assay [1] (20 uM) it was 0.7999; in assay [1] (40 uM) it was 0.6762. Also, the “CMV-LACZ in Myotubes, signal relative to DMSO” value in assay [2] (5 uM) is on record as 0.8081; in assay [2] (10 uM), 0.9406; in assay [2] (20 uM) it was 0.9412; in assay [2] (40 uM), 0.8421. Moreover, the “Burkin Assay in Myotubes (signal relative to DMSO)” value in assay [3] (0.5 uM) is listed as 1.14; in assay [3] (1 uM), 1; in assay [3] (5 uM) it was 1.317; in assay [3] (10 uM) it was 0.823; in assay [3] (20 uM), 0.8175; in assay [3] (40 uM), 0.7119.

For `COc1ccc(S(=O)(=O)N2CCN(C(=O)C3CCC3)CC2)cc1` [MLS001139515-01], the “Burkin Assay in Myoblasts, value relative to DMSO” value came to 0.9225 in assay [1] (0.5 uM); 0.9852 in assay [1] (1 uM); 1.053 in assay [1] (5 uM); 1.16 in assay [1] (10 uM); 0.8336 in assay [1] (20 uM); 0.8527 in assay [1] (40 uM). The “CMV-LACZ in Myotubes (β-galactosidase activity relative to DMSO)” value was found to be 0.9404 in assay [2] (5 uM), 0.7604 in assay [2] (10 uM), 0.9237 in assay [2] (20 uM) and 0.9601 in assay [2] (40 uM). Further, the “Burkin Assay in Myotubes (signal relative to DMSO)” value was 0.9636 in assay [3] (0.5 uM); 1.009 in assay [3] (1 uM); 1.013 in assay [3] (5 uM); 0.9488 in assay [3] (10 uM); 1.124 in assay [3] (20 uM); 1.013 in assay [3] (40 uM).

Consider `CNC(=O)/C(=C\c1cccc(Oc2ccccc2)c1)NC(=O)c1ccccc1` [MLS000389677-01], for which the “Burkin Assay in Myoblasts, signal relative to DMSO” value in assay [1] (0.5 uM) was 0.5325; in assay [1] (1 uM), 0.8831; in assay [1] (5 uM), 0.8426; in assay [1] (10 uM), 0.7976; in assay [1] (20 uM), 0.6619; in assay [1] (40 uM), 0.6089. Further, the “CMV-LACZ in Myotubes, signal relative to DMSO” value in assay [2] (5 uM) was found to be 0.8142; in assay [2] (10 uM), 0.7418; in assay [2] (20 uM) it was 1.019; in assay [2] (40 uM) it was 0.761. For the same compound, the “Burkin Assay in Myotubes, α7 integrin LacZ reporter signal relative to DMSO” value in assay [3] (0.5 uM) was 1.005; in assay [3] (1 uM), 0.9156; in assay [3] (5 uM), 1.109; in assay [3] (10 uM), 0.9956; in assay [3] (20 uM), 0.6421; in assay [3] (40 uM), 0.953.

Consider `CC(=O)Nc1ccc(N(C(=O)c2cnccn2)C(C(=O)NC2CCCCC2)c2ccc(F)cc2)cc1` (centres unmarked) [MLS001225507-01], for which the “Burkin Assay in Myoblasts, signal relative to DMSO” value in assay [1] (0.5 uM) came to 1.0374; in assay [1] (1 uM), 0.9444; in assay [1] (5 uM), 0.9036; in assay [1] (10 uM), 0.8292; in assay [1] (20 uM) it was 0.8685; in assay [1] (40 uM), 0.888. Also, the “CMV-LACZ in Myotubes, signal relative to DMSO” value in assay [2] (5 uM) was 1.04; in assay [2] (10 uM) it was 0.994; in assay [2] (20 uM), 0.8655; in assay [2] (40 uM) it was 0.8805. In addition, the “Burkin Assay in Myotubes, α7 integrin LacZ reporter signal relative to DMSO” value amounted to 0.9321 in assay [3] (0.5 uM); 0.6741 in assay [3] (1 uM); 1.013 in assay [3] (5 uM); 1.002 in assay [3] (10 uM); 1.175 in assay [3] (20 uM); 0.9539 in assay [3] (40 uM).

Consider `Cc1cc(C2CCCCC2)n(O)c(=O)c1` [Ciclopirox ethanolamine, reference compound], for which the “dose-response curve in myotubes” value in assay [3] was “positive dose-response curves”.

Consider `c1ccc(-c2ccccn2)nc1` [2,2-Dipyridyl, reference compound], for which the “dose-response curve in myotubes” value in assay [3] was “positive dose-response curves”.

Turning to `CCCC(=O)[O-].[Na+]` [sodium butyrate, reference compound], the β-galactosidase levels entry in assay [3] (treatments of ~1.5 mM, preliminary screens) was “increase β-galactosidase levels”.

In the case of `CC(C)CCC[C@@H](C)[C@H]1CC[C@H]2[C@@H]3CC(=O)[C@H]4C[C@@H](O)CC[C@]4(C)[C@H]3CC[C@]12C` [5alpha-cholestan-3β-ol-6-one, reference compound], the “dose-response curve in myotubes” value in assay [3] is “positive dose-response curve”.
